In PMC9166630, “SAR Probing of KX2-391 Provided Analogues With Juxtaposed Activity Profile Against Major Oncogenic Kinases” (Frontiers in Oncology, 2022):
“And” between values parts separate entries of the source, which are not always exact repeats. Equal entries are not always repeated.

What was measured:
[1] = Stability in mouse plasma; format: in vitro ADME; details: CD-1, mouse, pH 7.4, 37°C, read-out: Mouse Plasma Stability t1/2
Procedure: The assay was conducted at 37°C in triplicate. Test compounds or procaine (positive control) were tested at a final concentration of 1 µM in either 2.5% DMSO/CD-1 mouse plasma (Innovative Research, Novi, MI; sodium heparin added as anticoagulant; pH adjusted to 7.4 with 2N HCl on day of use) or 2.5% DMSO/PBS (pH 7.4: 136.9 mM NaCl, 2.68 mM KCl, 8.1 mM Na2HPO4, 1.47 mM KH2PO4, 0.9 mM CaCl2, 0.49 mM MgCl2). At seven time points, reaction mixture aliquots were transferred to 96-shallow well stop plates on ice containing acetonitrile with 0.1 µM propafenone. Samples were analyzed by LC/MS/MS on a Waters Xevo TQ instrument as described above using positive electrospray ionization. Assay acceptance criteria was 20% for all standards and 25% for the LLOQ. GraphPad® Prism v. 5.04 was used for nonlinear fitting of data to generate t1/2 values.

EphA5 = molecular target: T1, EphA5 (Homo sapiens, UniProt P54756); assay: PamChip tyrosine kinase microarray, EphA5; format: biochemical; details: 4e 0.1 µM, HL60 lysate
T1 construct: endogenous in cells; host or cells: HL60 lysate
T1 sequence (P54756 25-1037): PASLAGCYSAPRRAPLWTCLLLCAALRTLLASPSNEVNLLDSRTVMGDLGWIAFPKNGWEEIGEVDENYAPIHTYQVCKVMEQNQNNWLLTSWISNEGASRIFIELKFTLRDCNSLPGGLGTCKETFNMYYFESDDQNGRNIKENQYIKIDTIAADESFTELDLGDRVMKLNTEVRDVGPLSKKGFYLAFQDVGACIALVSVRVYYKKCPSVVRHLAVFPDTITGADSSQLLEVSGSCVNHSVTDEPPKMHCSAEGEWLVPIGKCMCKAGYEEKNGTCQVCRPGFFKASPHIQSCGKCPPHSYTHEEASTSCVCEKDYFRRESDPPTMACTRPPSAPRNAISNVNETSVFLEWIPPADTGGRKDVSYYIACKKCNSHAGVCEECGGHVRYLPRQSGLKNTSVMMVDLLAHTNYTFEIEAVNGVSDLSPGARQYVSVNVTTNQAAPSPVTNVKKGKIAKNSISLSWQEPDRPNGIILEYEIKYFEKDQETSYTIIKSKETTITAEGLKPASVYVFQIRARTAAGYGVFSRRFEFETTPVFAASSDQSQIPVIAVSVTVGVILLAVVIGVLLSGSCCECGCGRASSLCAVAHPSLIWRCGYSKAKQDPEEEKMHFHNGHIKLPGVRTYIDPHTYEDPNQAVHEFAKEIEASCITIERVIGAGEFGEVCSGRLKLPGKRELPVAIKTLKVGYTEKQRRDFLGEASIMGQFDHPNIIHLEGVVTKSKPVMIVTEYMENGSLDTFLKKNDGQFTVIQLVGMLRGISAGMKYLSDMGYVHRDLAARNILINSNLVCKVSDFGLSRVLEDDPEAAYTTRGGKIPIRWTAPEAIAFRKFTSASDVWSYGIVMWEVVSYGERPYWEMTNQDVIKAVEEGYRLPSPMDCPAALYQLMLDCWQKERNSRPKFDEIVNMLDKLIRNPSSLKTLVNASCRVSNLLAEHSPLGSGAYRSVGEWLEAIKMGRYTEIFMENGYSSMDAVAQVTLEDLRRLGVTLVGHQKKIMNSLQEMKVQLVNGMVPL
Procedure: (§1) The changes in kinase activities induced by treatment with 4e were monitored within the HL60 cell lines using PamGene’s (Hertogenbosch, Netherlands) PamChip® peptide microarray profiler, which quantifies the activities of 144 tyrosine kinases (YK) ([29], [30]) (Figure 7). Results are provided as a log fold change (LFC) heatmap and Mean Kinase Statistic. From the LFC it is apparent that compound 4e, at a concentration of 0.1 µM, induced sizable changes to the activity of several kinases within the cell signaling YK profile (Figure 7A).
(§2) An Upstream Kinase tool was used to generate a putative list of kinases responsible for phosphorylating the phospho-sites on the PamChip (Figure 7B) ([31]). It is an interpretation and is highly dependent on the contents of the underlying phosphorylation databases. A Kinase Score was used for ranking kinases based on their significance and specificity in terms of the set of peptides used for the corresponding kinase. Kinase Statistics indicates the overall change of the peptide set that represents the kinase. Kinase statistics value <0 indicates lower kinase activity in the compound spiked lysate and vice versa ([32], [33]). Table 5 lists the 20 most changed kinases within treated HL60 cell lysates by 0.1 μM 4e, ranked according to their Kinase Score.
(§3) The compound 4e was spiked into HL60 cell lysate at different concentrations (0.001, 0.01, 0.1, 1, 10 and 50 μM). In addition, DMSO was also spiked in HL60 lysate at low concentration (2% v/v) as control. Samples were profiled on PamGene’s Tyrosine Kinase (PTK) arrays in technical replicates, covering a total of 196 phosphorylation sites. Frozen HL60 cultured cell pellet was sent to PamGene. At PamGene, cells were lysed using a lysis buffer and proteases inhibitors cocktail. Protein concentration was measured using standard Bradford assay as per PamGene SOPs. These lysates were further used for generating the PTK activity profiles. For spiking, 4e was received as powder form and dissolved in DMSO at PamGene facility followed by storing at -20°C in small aliquots. PamGene used its in-house bioinformatics toolbox in combination with other methods to generate hypotheses of signaling pathways.

GSK-3α/β = assay: Human phosphokinase array, GSK-3α/β; format: cell-based
Source text: (§4) The kinome tree representation (Figure 7C), which was generated by raising the Kinase Score cut-off to >1.2, confirmed that, unlike tirbanibulin and our prototype molecule KX1-136, 4e’s effects were more observable on kinases other than the Src family such as the Eph and TEC families. […] Therefore, we screened compound 4e using the Human Phospho-Kinase Array® kit from R&D systems (Minneapolis, MN, USA). In this system, 35 phosphorylated YK and serine-threonine kinase (STK) enzymes in the untreated (control) and treated (test) HL60 cell lysates were captured on nitrocellulose membrane, pre-spotted with phosphokinase-specific capture antibodies, and then visualized by detection antibody cocktails (Figure 8). The difference in the spot intensity between untreated (control) and treated cells is proportional to change in the amount of the phosphorylated protein induced by 4e.
(§5) The phosphorylation profile of 48 kinases was performed using the Proteome Profiler Human Phospho-Kinase Antibody Array Kit by R&D Systems (Minneapolis, MN, USA) according to the protocol. Briefly, the total cellular protein was extracted using the Lysis buffer and was quantified using Bio-Rad DC Protein Assay kit (Hercules, CA, USA). Nitrocellulose membrane set (A&B), pre-spotted with kinase-specific capture antibodies, were first blocked with Array Buffer-1 at RT for 30 min on a rocking platform shaker. Approximately 600 µg of protein concentrate was diluted in the buffer provided and was added onto the membrane set, and the membranes were incubated overnight at 4°C in an 8-well plate. Subsequently, membranes were washed with Wash Buffer and incubated with appropriate Detection Antibody cocktails for 2 h at RT. Streptavadin-HRP (1:2000) was added onto membranes and incubated for 30 min at RT. Membranes were washed, and Chemiluminescent Detection Reagents 1&2 were applied in equal volumes for detection. The signals were detected on C-DiGit®Blot Scanner (LI-COR, Odyssey Imaging Systems, Lincoln, Nebraska, USA) using Image Studio 5.0 software.

JNK1/2/3 = assay: Human phosphokinase array, JNK1/2/3; format: cell-based
Source text: as §4, §5

ITK = molecular target: T2, ITK (Homo sapiens, UniProt Q08881); assay: PamChip tyrosine kinase microarray, ITK; format: biochemical; details: 4e 0.1 µM, HL60 lysate
T2 construct: endogenous in cells; host or cells: HL60 lysate
T2 sequence (Q08881 1-620): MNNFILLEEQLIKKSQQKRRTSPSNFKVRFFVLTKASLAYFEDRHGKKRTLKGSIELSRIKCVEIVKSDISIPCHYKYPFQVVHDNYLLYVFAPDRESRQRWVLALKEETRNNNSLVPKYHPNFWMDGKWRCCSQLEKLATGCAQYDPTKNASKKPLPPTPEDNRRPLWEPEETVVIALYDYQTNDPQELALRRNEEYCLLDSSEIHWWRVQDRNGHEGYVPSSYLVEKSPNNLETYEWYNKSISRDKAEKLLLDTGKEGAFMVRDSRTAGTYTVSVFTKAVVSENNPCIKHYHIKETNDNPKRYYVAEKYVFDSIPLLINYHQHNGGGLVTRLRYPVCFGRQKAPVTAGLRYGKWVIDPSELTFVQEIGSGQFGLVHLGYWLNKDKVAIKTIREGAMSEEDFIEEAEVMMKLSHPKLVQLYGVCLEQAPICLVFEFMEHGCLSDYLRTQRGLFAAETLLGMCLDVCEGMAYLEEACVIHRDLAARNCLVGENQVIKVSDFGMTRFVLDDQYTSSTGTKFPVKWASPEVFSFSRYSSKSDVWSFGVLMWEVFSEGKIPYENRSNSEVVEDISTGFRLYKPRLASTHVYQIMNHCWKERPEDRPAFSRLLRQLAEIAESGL
Procedure: as §1, §2, §3

Structure (SMILES)	half-life at 1 µM [1] [h]	Mean Final Score (EphA5)	Mean Kinase Statistic (EphA5)	Mean Significance Score (EphA5)	Mean Specificity Score (EphA5)	phosphokinase signal after 4e exposure, GSK-3α/β (GSK-3α/β; HL60 cell lysate, treated)	Change in Signal, GSK-3α/β (GSK-3α/β; treated vs untreated HL60)	% Change, GSK-3α/β (GSK-3α/β; treated vs untreated HL60, Ser9 phosphorylation)	phosphokinase signal after 4e exposure, JNK1/2/3 (JNK1/2/3; HL60 cell lysate, treated)	% Change, JNK1/2/3 (JNK1/2/3; treated vs untreated HL60) [%]	Change in Signal, JNK1/2/3 (JNK1/2/3; treated vs untreated HL60)	Mean Final Score (ITK)	Mean Kinase Statistic (ITK)	Mean Significance Score (ITK)	Mean Specificity Score (ITK)
O=C(Cc1ccc(NC(=O)c2cccc(Cl)n2)cc1)NCc1ccccc1 [Compound 4n, N-(4-(2-(benzylamino)-2-oxoethyl)phenyl)-6-chloropicolinamide]	2.97														
O=C(Cc1ccc(NC(=O)c2cccc(Cl)c2)cc1)NCc1ccccc1 [Compound 4e, N-(4-(2-(benzylamino)-2-oxoethyl)phenyl)-3-chlorobenzamide]	> 5	2.9453	-0.8931	1.7474	1.1979	102.64	22.94	28.78% and 28%	20.91	-50.61	-21.43	1.9173	-0.5666	1.0723	0.8451
